Test results published in ChEMBL document CHEMBL4049411, “Rational Design, Synthesis, and Biological Evaluation of Heterocyclic Quinolones Targeting the Respiratory Chain of Mycobacterium tuberculosis” (J Med Chem, 2017).

Assay: Inhibition of replicating Mycobacterium tuberculosis H37Rv NDH assessed as cell growth inhibition after 7 days by MABA method
Details: 168 h

SMILES | IC50 [µM]
COc1ccc2c(=O)c(Cl)c(-c3ccc(N4CCC(F)CC4)cc3)[nH]c2c1 | > 10
O=c1c(Cl)c(-c2ccc(N3CCCCC3)cc2)[nH]c2ccccc12 | 1.56
Cc1c(-c2ccc(N3CC[C@@H]3C(=O)N(C)C)cc2)[nH]c2cc(F)cc(F)c2c1=O | > 10
Cc1c(-c2ccc(N3CC(F)(F)C3)cc2)[nH]c2cc(F)cc(F)c2c1=O | 1.53
Cc1c(-c2ccc(-n3cccc3)cc2F)[nH]c2cc(F)cc(F)c2c1=O | > 10
Cc1c(-c2ccc(N(C)C)cc2)[nH]c2cc(F)cc(F)c2c1=O | 0.41
COc1ccc2c(=O)c(C)c(-c3ccc(N4CCC(Cc5ccccc5)CC4)cc3)[nH]c2c1 | > 10
Cc1c(-c2ccc(-n3cccc3C#N)cc2)[nH]c2cc(F)cc(F)c2c1=O | > 10
COc1cc2[nH]c(-c3ccc(N4CCCCC4)cc3)c(C)c(=O)c2cc1Cl | > 10
Cc1c(-c2ccc(-n3ccc4ccccc43)cc2)[nH]c2cc(F)cc(F)c2c1=O | > 10
Cc1c(-c2ccc(N3CCC[C@@H]3C(=O)NC3CCOCC3)cc2)[nH]c2cc(F)cc(F)c2c1=O | > 10
Cc1c(-c2ccc(N3CCC(C)(O)C3)cc2)[nH]c2cc(F)cc(F)c2c1=O (stereo not given) | > 10
COc1ccc2c(=O)c(C)c(-c3ccc(N4CCN(c5ccccc5)CC4)cc3)[nH]c2c1 | > 10
COc1cc2[nH]c(-c3ccc(N4CCCCC4)cc3)c(C)c(=O)c2cc1OC | > 10
Cc1c(-c2ccc(N3CCN(C)CC3)cc2)[nH]c2cc(F)cc(F)c2c1=O | > 10
Cc1c(-c2ccc(N3CC[C@@H]3C(=O)NC(C)(C)C)cc2)[nH]c2cc(F)cc(F)c2c1=O | > 10
Cc1c(-c2ccc(N3CCC[C@H]3COCc3ccccc3)cc2)[nH]c2cc(F)cc(F)c2c1=O | 0.96
Cc1c(-c2ccc(N3CCN(Cc4ccccc4)CC3)cc2)[nH]c2ccc(F)cc2c1=O | > 10
Cc1c(-c2ccc(N3CCCCC3)cc2)[nH]c2ccc(F)cc2c1=O | 1.83
COc1ccc2c(=O)c(C)c(-c3ccc(N4CCN(Cc5ccccc5)CC4)cc3)[nH]c2c1 | > 10

SMILES | IC50 [µM]
COc1ccc2c(=O)cc(-c3ccc(N4CCC(F)CC4)cc3)[nH]c2c1 | > 10
Cc1c(-c2ccc(N3CCC[C@@H]3C(=O)N(C)C)cc2)[nH]c2cc(F)cc(F)c2c1=O | > 10
Cc1c(-c2ccc(N3CCCC(C)(O)C3)cc2)[nH]c2cc(F)cc(F)c2c1=O (stereo not given) | 5.01
Cc1c(-c2ccc(NCc3ccccc3)cc2)[nH]c2cc(F)cc(F)c2c1=O | > 10
Cc1c(-c2ccc(N3CCC[C@@H]3C(=O)NC(C)(C)C)cc2)[nH]c2cc(F)cc(F)c2c1=O | 0.96
O=c1cc(-c2ccc(N3CCCCC3)cc2)[nH]c2ccccc12 | > 10
Cc1c(-c2ccc(N3CCC[C@@H]3C(=O)N3CCOCC3)cc2)[nH]c2cc(F)cc(F)c2c1=O | > 10
Cc1c(-c2cccc(N3CCCCC3)c2)[nH]c2cc(F)cc(F)c2c1=O | > 10
COc1ccc2c(=O)cc(-c3ccc(N4CCCCC4)cc3)[nH]c2c1 | > 10
Cc1c(-c2ccc(-n3cccc3)cc2)[nH]c2cccc(F)c2c1=O | 0.71
Cc1c(-c2ccc(N3CCC(F)CC3)cc2)[nH]c2ccccc2c1=O | > 10
Cc1c(-c2ccc(N3CCC(Cc4ccccc4)CC3)cc2)[nH]c2ccc(F)cc2c1=O | > 10
O=c1c(Br)c(-c2ccc(N3CCCCC3)cc2)[nH]c2ccccc12 | 0.6
Cc1c(-c2ccc(-n3cccc3)c(Cl)c2)[nH]c2cc(F)cc(F)c2c1=O | > 10
Cc1c(-c2ccc(N3CC(C)(O)C3)cc2)[nH]c2cc(F)cc(F)c2c1=O | > 10
Cc1c(-c2ccc(N3CCCCC3)cc2)[nH]c2cc(Cl)ccc2c1=O | > 10
COc1ccc2c(=O)c(C)c(-c3ccc(N4CCC(F)CC4)cc3)[nH]c2c1 | 1.32
Cc1c(-c2ccc(N3CCC(F)(F)CC3)cc2)[nH]c2cc(F)cc(F)c2c1=O | > 10
Cc1c(-c2ccc(N3CCN(Cc4ccccc4)CC3)cc2)[nH]c2ccccc2c1=O | 5.74
Cc1c(-c2ccc(-n3cccn3)cc2)[nH]c2cc(F)cc(F)c2c1=O | > 10
